{
  "source": "patent US8252740B2",
  "about": "“Thermally-targeted delivery of medicaments including doxorubicin” (The University of Mississippi Medical Center, priority 2006, dated 2012)",
  "key": {"MES-SA cells": {"system": "MES-SA cells", "test": "Caspase activation, FLICA polycaspase assay with flow cytometry", "type": "cell-based, human", "conditions": "10 μM", "description": "MES-SA cells were treated for 1 h at 37 or 42° C. with Tat-ELP-GFLG-DOX (SEQ ID NO: 3), the control construct lacking the Tat sequence, with free DOX. Cells were harvested after the 1 h exposure, and caspase activity was detected using a fluorescent caspase inhibitor (Immunochemistry Technologies, Bloomington, Minn.) and flow cytometry.\nCaspase activation was measured using a carboxyfluorescein FLICA polycaspase assay (Immunochemistry Technologies, Bloomington, Minn.). Cells were treated as described above with the indicated protein, collected by trypsinization, and stained for 2 h at 37° C. with the carboxyfluorescein FLICA reagent as described by the manufacturer. Cells were rinsed twice and analyzed for caspase activation by flow cytometry using a Cytomics FC 500 flow cytometer (n=5,000 cells). Forward versus side scatter gating was used to eliminate cell debris from the analysis, and a histogram of fluorescein fluorescence (channel FL1) was bimodal with peaks for caspase positive and caspase negative cells. The percentage of caspase positive cells was determined from the histograms and expressed as an average of 3 experiments.\nMES-SA cells were treated as described above, cells were harvested after the 1 h exposure, and caspase activity was detected using a fluorescent caspase inhibitor and flow cytometric analysis. […] Cell numbers under each peak were quantified and averaged to determine the percentage of the cell population in which caspases were activated under each treatment condition. […] In fact, the percent of caspase positive cells was enhanced almost 4 fold when cells were treated with Tat-ELP1-GFLG-Dox (SEQ ID NO: 3) at 42° C. versus 37° C. (p<0.05)."}, "[1]": {"system": "MES-SA uterine sarcoma cells", "test": "Polypeptide uptake by flow cytometry of Dox fluorescence", "type": "cell-based, human", "description": "In order to test whether the induction of ELP aggregation with hyperthermia can enhance the cellular uptake of the polypeptide, MES-SA uterine sarcoma cells were incubated with Tat-ELP-GFLG-DOX (SEQ ID NO: 3) for 1 h at either 37 or 42° C. Cells were then analyzed by flow cytometry, using the natural DOX fluorescence to quantify the amount of drug in the cells. When treated with the ELP1 containing construct, which aggregates at 40° C., the amount of drug delivered to the cells increases almost 2-fold (FIG. 10). […] This illustrates that the enhanced uptake observed after hyperthermia is the result of the ELP phase transition, not nonspecific effects of hyperthermia.\n1.6. Polypeptide Uptake. Cells were treated with 20 μM Tat-ELP1-GFLG-Dox (SEQ ID NO: 3), Tat-ELP2-GFLG-Dox (SEQ ID NO: 3), or control polypeptides lacking the Tat sequence as described above. Duplicate plates were treated for 1 h at 37° C. and 42° C. Cells were rinsed with PBS and harvested using nonenzymatic cell dissociation buffer (Invitrogen), centrifuged for 2 min, and resuspended in 0.5 ml PBS. Total uptake of the doxorubicin labeled polypeptides was measured using the intrinsic Dox fluorescence by a Cytomics FC 500 flow cytometer (Beckman Coulter, Fullerton, Calif.). Forward versus side scatter gating was used to remove cell debris from the analysis, and Dox fluorescence was measured using FL3. Each histogram was a unimodal peak (n=5000 cells), and the peak mean was normalized to propidium standard beads.\n3.3. Cellular Uptake of ELP-delivered Doxorubicin. MES-SA uterine sarcoma cells were used in this study to evaluate the efficiency of ELP-mediated cellular delivery of doxorubicin. […] After harvesting the cells with non-enzymatic cell dissociation buffer to prevent degradation of polypeptide attached to the cell surface, the non-fixed cells were analyzed by flow cytometry to measure the Dox fluorescence. […] Cellular fluorescence was increased over 2 fold when the MES-SA cells were treated with Tat-ELP1-GFLG-Dox (SEQ ID NO: 3) at 42° C. rather than 37° C. […]"}},
  "data": [
    {"substance": "Tat-ELP1-GFLG-Dox", "values": [
      {"measurement": "Enhancement of percent caspase positive cells at 42° C. versus 37° C.", "setting": "MES-SA cells; 1 h", "value": "~4", "unit": "fold"},
      {"measurement": "Caspase activation / apoptosis induction", "setting": "MES-SA cells; 1 h at 37° C.", "value": "slightly above control levels"},
      {"measurement": "Caspase activation / apoptosis induction", "setting": "MES-SA cells; 1 h at 42° C.", "value": "significantly higher proportion of the population"},
      {"measurement": "Increase of drug delivered to cells at 42° C. versus 37° C.", "setting": "[1]; 10 μM, 1 h (FIG. 10)", "value": "~2", "unit": "fold"},
      {"measurement": "Increase of cellular fluorescence at 42° C. versus 37° C.", "setting": "[1]; 20 μM, 1 h", "value": "over 2 fold"},
      {"measurement": "Uptake relative to ELP1-GFLG-Dox", "setting": "[1]; 20 μM, 1 h, 42° C.", "value": 6, "unit": "fold"}
    ]}
  ]
}
